Measured values: US11312704B2, “Inhibitors of cysteine proteases and methods of use thereof” (priority 2020, dated 2022)
Read-outs that look alike come from different tables or passages of the source.

What was measured:
[1] = test system: cell viability without virus infection; test: Cytotoxicity under the 229E CPE conditions without virus infection (CellTiter Glo); details: read-out: 229E CC50
[2] = biological target: 229E mPRO (Human coronavirus 229E (HCoV-229E), UniProt P0C6X1); test: 229E mPRO enzymatic assay; type: biochemical, Human Coronavirus (HCov) 229E
Sequence of 229E mPRO (P0C6X1 2966-3267 limits assumed): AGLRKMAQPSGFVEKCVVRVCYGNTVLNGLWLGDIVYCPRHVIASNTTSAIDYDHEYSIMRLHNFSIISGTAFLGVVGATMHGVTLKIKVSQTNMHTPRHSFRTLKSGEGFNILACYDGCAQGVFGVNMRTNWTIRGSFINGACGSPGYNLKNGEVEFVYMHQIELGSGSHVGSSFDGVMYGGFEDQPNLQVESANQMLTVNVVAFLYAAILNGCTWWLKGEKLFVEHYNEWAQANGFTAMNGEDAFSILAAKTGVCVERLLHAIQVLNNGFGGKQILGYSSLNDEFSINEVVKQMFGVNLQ
Experimental: Compounds were assayed using standard methods to assess compound activity and IC50. […] The assay buffer contained 20 mM of Tris-HCl (pH 7.3), 100 mM of NaCl, 1 mM of EDTA, 5 mM of TCEP and 0.1% BSA.
The compounds were added to an assay plate.
IC50 values of compounds were calculated with the GraphPad Prism software using the nonlinear regression model of log(inhibitor) vs. response—Variable slope (four parameters). The inhibition activity was calculated using the formula below, IC50 values was calculated using the Inhibition % data. Inhibition %=[(Sample-Average ZPE)/(Average HPE-Average ZPE)]*100%^#

[3] = test system: HCoV 229E; test: HCoV 229E cytopathic effect (CPE) assay; type: cell-based, Human Coronavirus (HCov) 229E; details: CellTiter Glo
Experimental: The antiviral activity of compounds was calculated based on the protection of the virus-induced CPE at each concentration normalized by the virus control.
Reagents and instruments used in this assay include luminescent cell viability assay kit CellTiter Glo (Promega) and Microplate Reader Synergy2 (BioTek).
Cytopathic effect (CPE) was measured by CellTiter Glo following the manufacturer's manual. The antiviral activity of compounds was calculated based on the protection of the virus-induced CPE at each concentration normalized by the virus control.

[4] = biological target: SARS-COV2 Mpro (Severe acute respiratory syndrome coronavirus 2 (2019-nCoV) (SARS-CoV-2), UniProt P0DTD1); test: SARS-CoV2 Mpro enzymatic assay; type: biochemical; details: 25 nM Mpro, 25 μM substrate

| SMILES | IC50 ([2]; read-out: 229E mPRO IC50) | EC50 [3] | also measured |
| --- | --- | --- | --- |
| CC(C)CC(NC(=O)c1nc2ncccc2[nH]1)C(=O)NC(C#N)CC1CCNC1=O (single isomer, unassigned) [130 (Isomer 1)] |  |  | CC50 [1]: > 30000 nM |
| COc1cccc2[nH]c(C(=O)N[C@@H](CC(C)C)C(=O)N[C@@H](C[C@@H]3CCNC3=O)C(C#N)N3CCCC3)cc12 (single isomer, unassigned) [331 (Isomer 2)] | < 2000 nM |  |  |
| COc1cccc2[nH]c(C(=O)N[C@@H](CC3CC3)C(=O)N[C@H](C#N)C[C@@H]3CCCNC3=O)cc12 (single isomer, unassigned) [491 (Isomer 1)] | < 2000 nM |  |  |
| COc1cccc2[nH]c(C(=O)N[C@H](CC3CC3)C(=O)N[C@H](C#N)C[C@@H]3CCCNC3=O)cc12 (single isomer, unassigned) [491A (Isomer 2)] |  |  | IC50 [2]: < 2000 nM |
| CCNC(C#N)[C@H](C[C@@H]1CCNC1=O)NC(=O)[C@H](CC(C)C)NC(=O)c1cc2c(OC)cccc2[nH]1 (single isomer, unassigned) [511 (Isomer 1)] | < 2000 nM | < 2000 nM |  |
| CCNC(C#N)[C@H](C[C@@H]1CCNC1=O)NC(=O)[C@H](CC(C)C)NC(=O)c1cc2c(OC)cccc2[nH]1 (single isomer, unassigned) [511 (Isomer 2)] | < 2000 nM |  |  |
| N#C[C@H](C[C@@H]1CCCNC1=O)NC(=O)[C@H](CC1CC1)NC(=O)c1cc2cccc(Cl)c2[nH]1 (single isomer, unassigned) [639 (Isomer 1)] | < 2000 nM | < 2000 nM |  |
| COc1cccc2[nH]c(C(=O)N3CC4(CCC4)CC3C(=O)N[C@H](C#N)C[C@@H]3CCCNC3=O)cc12 (single isomer, unassigned) [719 (Isomer 2)] | < 2000 nM | < 2000 nM | IC50 [4]: < 2000 nM |
| COc1cccc2[nH]c(C(=O)N[C@@H](CC(C)C)C(=O)N[C@H](C#N)Cc3cn(C)cn3)cc12 [Compound 227, N-[(1S)-1-[[(1S)-1-cyano-2-(1-methylimidazol-4-yl)ethyl]carbamoyl]-3-methyl-butyl]-4-methoxy-1H-indole-2-carboxamide] | > 30000 nM |  |  |
| COc1cccc2[nH]c(C(=O)N[C@@H](CC(C)C)C(=O)N[C@@H](C[C@@H]3CCNC3=O)C(C#N)Nc3ccccc3)cc12 (some centres unmarked) [Compound 327] | < 2000 nM |  | IC50 [4]: < 2000 nM |
| CCCOc1cccc2[nH]c(C(=O)N[C@@H](CC(C)C)C(=O)N[C@H](C#N)C[C@@H]3CCNC3=O)cc12 [Compound 379] | < 2000 nM | < 2000 nM |  |
| COc1cccc2[nH]c(C(=O)N3C[C@H](OC)C[C@H]3C(=O)N[C@H](C#N)C[C@@H]3CCNC3=O)cc12 [Compound 407] | < 2000 nM | < 2000 nM |  |
| CC(C)C[C@H](NC(=O)c1cc2c(OC(F)F)cccc2[nH]1)C(=O)N[C@H](C#N)C[C@@H]1CCNC1=O [Compound 509] |  | < 2000 nM |  |
| CCNC(C#N)[C@H](C[C@@H]1CCNC1=O)NC(=O)[C@H](CC(C)C)NC(=O)c1cc2c(OC)cccc2[nH]1 (stereo partly drawn) [Compound 511, N-[(1S)-1-[[(1S)-2-cyano-2-(ethylamino)-1-[[(3S)-2-oxopyrrolidin-3-yl]methyl]ethyl]carbamoyl]-3-methyl-butyl]-4-methoxy-1H-indole-2-carboxamide] |  | < 2000 nM |  |
| N#C[C@H](C[C@@H]1CCNC1=O)NC(=O)[C@H](CC1CC1)NC(=O)c1cc2cc(Cl)ccc2[nH]1 [Compound 519] |  | < 2000 nM |  |
| N#C[C@H](C[C@@H]1CCNC1=O)NC(=O)[C@H](CC1CC1)NC(=O)c1cc2cccc(Cl)c2[nH]1 [Compound 531, 7-chloro-N-[(1S)-2-[[(1S)-1-cyano-2-[(3S)-2-oxopyrrolidin-3-yl]ethyl]amino]-1-(cyclopropylmethyl)-2-oxo-ethyl]-1H-indole-2-carboxamide] |  | < 2000 nM |  |

| SMILES | IC50 ([2]; read-out: 229E mPRO IC50) | EC50 [3] | also measured |
| --- | --- | --- | --- |
| COc1cccc2[nH]c(C(=O)N[C@@H](CC3CCC3)C(=O)N[C@H](C#N)C[C@@H]3CCNC3=O)cc12 [Compound 577] |  | < 2000 nM |  |
| CC(C)C[C@H](NC(=O)/C=C/c1ccc(Cl)cc1F)C(=O)N[C@H](C#N)C[C@@H]1CCNC1=O [Compound 598] |  | < 2000 nM |  |
| N#C[C@H](C[C@@H]1CCCNC1=O)NC(=O)[C@H](CC1CC1)NC(=O)c1cc2ccc(Cl)cc2[nH]1 [Compound 635, 6-Chloro-N-[(1S)-2-[[(1S)-1-cyano-2-[(3S)-2-oxo-3-piperidyl]ethyl]amino]-1-(cyclopropylmethyl)-2-oxo-ethyl]-1H-indole-2-carboxamide] |  | < 2000 nM |  |
| N#C[C@H](C[C@@H]1CCCNC1=O)NC(=O)[C@H](CC1CC1)NC(=O)c1nc2c(Cl)ccc(Cl)c2[nH]1 [Compound 637, 4,7-dichloro-N-[(1S)-2-[[(1S)-1-cyano-2-[(3S)-2-oxo-3-piperidyl]ethyl]amino]-1-(cyclopropylmethyl)-2-oxo-ethyl]-1H-benzimidazole-2-carboxamide] |  | < 2000 nM |  |
| COc1cccc2[nH]c(C(=O)N[C@@H](CC(C)(C)C)C(=O)N[C@H](C#N)C[C@@H]3CCCNC3=O)cc12 [Compound 643, N-[(1S)-1-[[(1S)-1-cyano-2-[(3S)-2-oxo-3-piperidyl]ethyl]carbamoyl]-3,3-dimethyl-butyl]-4-methoxy-1H-indole-2-carboxamide] |  | < 2000 nM |  |
| COc1cccc2[nH]c(C(=O)N[C@@H](CC(C)C)C(=O)N[C@@H](C[C@@H]3CCNC3=O)C(C#N)NCC(=O)O)cc12 (some centres unmarked) [Compound 653] |  | < 2000 nM |  |
| N#C[C@H](C[C@@H]1CCNC1=O)NC(=O)[C@H](CC1CC1)NC(=O)c1cc2c([nH]1)CCCC2 [Compound 711] |  | < 2000 nM |  |
| N#C[C@H](C[C@@H]1CCCNC1=O)NC(=O)[C@H](CC1CC1)NC(=O)c1cc2c(Cl)nccc2[nH]1 [Compound 715] |  | < 2000 nM |  |
| N#C[C@H](C[C@@H]1CCCNC1=O)NC(=O)[C@H](CC1CC1)NC(=O)c1cc2cc(Cl)ncc2[nH]1 [Compound 717] |  | < 2000 nM |  |
| CC(C)(C)C[C@H](NC(=O)c1cc2cccc(Cl)c2[nH]1)C(=O)N[C@H](C#N)C[C@@H]1CCCNC1=O [Compound 721, 7-chloro-N—((S)-1-(((S)-1-cyano-2-((S)-2-oxopiperidin-3-yl)ethyl)amino)-4,4-dimethyl-1-oxopentan-2-yl)-1H-indole-2-carboxamide] |  | < 2000 nM |  |
| CC(C)(C)C[C@H](NC(=O)c1cc2ccc(Cl)c(Cl)c2[nH]1)C(=O)N[C@H](C#N)C[C@@H]1CCCNC1=O [Compound 725] |  | < 2000 nM |  |
| CC(C)(C)C[C@H](NC(=O)c1cc2c(Cl)ccc(Cl)c2[nH]1)C(=O)N[C@H](C#N)C[C@@H]1CCCNC1=O [Compound 735] |  | < 2000 nM |  |
| COc1ccc(Cl)c2[nH]c(C(=O)N[C@@H](CC(C)(C)C)C(=O)N[C@H](C#N)C[C@@H]3CCCNC3=O)cc12 [Compound 737] |  | < 2000 nM |  |
| COc1c(Cl)ccc2[nH]c(C(=O)N[C@@H](CC(C)(C)C)C(=O)N[C@H](C#N)C[C@@H]3CCCNC3=O)cc12 [Compound 739] |  | < 2000 nM |  |
| CC(C)(C)C[C@H](NC(=O)c1cc2ccc(Cl)cc2[nH]1)C(=O)N[C@H](C#N)C[C@@H]1CCCNC1=O [Compound 745] |  | < 2000 nM |  |
